Values after ≈ are worked out from the molar mass of the structure shown. Where a name gives a salt, the structure may show the parent alone. Read-outs that look alike come from different tables or passages of the source.

These results are taken from US4465631A, “5-Substituted-3-isoxazolecarboxylic acid derivatives” (Ajinomoto Company, Incorporated, priority 1982, dated 1984).

Common to all, as to assay: Antibacterial activity (MIC)
What all share (format): cell-based

In one experiment the test system is Staphylococcus aureus. From the text:
(§1) Regarding the products produced in the above mentioned Examples antibacterial activities against some microorganisms were obtained.

A further experiment relates to Serratia marcescens.
Source text: as §1

The test system of another experiment is Escherichia coli.
Source text: as §1

For a further experiment, the system named is Klebsiella pneumoniae.
Source text: as §1

For the next experiment, the system named is Alcaligenes faecalis.
Source text: as §1

In experiment [1] the test system is Achromobacter xylosoxidans.
Source text: as §1

Another experiment deals with Pseudomonas cepacia. Particulars: Burkholderia cepacia.
Source text: as §1

Another experiment relates to Proteus mirabilis.
Source text: as §1

In the next experiment the test system is Pseudomonas maltophilia. Particulars: Stenotrophomonas maltophilia.
Source text: as §1

The subject of the next experiment is Bacteroides fragilis.
Source text: as §1

Another experiment has as its system Pseudomonas aeruginosa.
Source text: as §1

`CC1(C)S[C@@H]2[C@H](NC(=O)C(C(=O)O)c3ccccc3)C(=O)N2[C@H]1C(=O)O` (some centres unmarked) [Carbenicillin, reference compound]: the MIC is 0.78 µg/mL (≈ 2.06 µM) against Staphylococcus aureus; over 100 µg/mL in the experiment with Serratia marcescens; 12.5 µg/mL (≈ 33 µM) with Escherichia coli; over 100 µg/mL against Klebsiella pneumoniae; over 100 µg/mL against Alcaligenes faecalis; over 100 µg/mL in [1]. The MIC with Pseudomonas cepacia is over 100 µg/mL; against Proteus mirabilis, 0.78 µg/mL (≈ 2.06 µM); against Pseudomonas maltophilia, over 100 µg/mL; in the experiment on Bacteroides fragilis, over 100 µg/mL; against Pseudomonas aeruginosa, 25 µg/mL (≈ 66.1 µM).
With `Cc1ccc(-c2cc(C(=O)N[C@@H](C(=O)N[C@@H]3C(=O)N4[C@@H]3SC(C)(C)[C@@H]4C(=O)O)c3ccccc3)no2)cc1` [Example 1, α-[5-(4-methylphenyl)-3-isoxazolecarboxamido]-benzylpenicillin], the MIC with Staphylococcus aureus was at most 0.1 µg/mL; against Serratia marcescens it was 12.5 µg/mL (≈ 23.4 µM); with Escherichia coli (read-out: MIC), 12.5 µg/mL (≈ 23.4 µM); against Klebsiella pneumoniae, 6.25 µg/mL (≈ 11.7 µM); in the experiment on Alcaligenes faecalis, 6.25 µg/mL (≈ 11.7 µM); in experiment [1], 1.56 µg/mL (≈ 2.92 µM). The minimum inhibitory concentration (MIC) against Pseudomonas cepacia worked out at 3.13 µg/mL (≈ 5.85 µM); with Proteus mirabilis, 0.78 µg/mL (≈ 1.46 µM); in the experiment on Pseudomonas maltophilia it was 6.25 µg/mL (≈ 11.7 µM); against Bacteroides fragilis, 6.25 µg/mL (≈ 11.7 µM); against Pseudomonas aeruginosa it was 3.13 µg/mL (≈ 5.85 µM).
For `COc1cccc(-c2cc(C(=O)N[C@@H](C(=O)N[C@@H]3C(=O)N4[C@@H]3SC(C)(C)[C@@H]4C(=O)O)c3ccccc3)no2)c1` [Example 3, D-α-(5-m-anisylisoxazole-3-carboxamido)-benzylpenicillin sodium salt], the minimal inhibitory concentration (MIC) was determined as 0.2 µg/mL against Staphylococcus aureus; 12.5 µg/mL in the experiment with Serratia marcescens; 12.5 µg/mL in the experiment with Escherichia coli (read-out: MIC); 12.5 µg/mL against Klebsiella pneumoniae; 6.25 µg/mL against Alcaligenes faecalis; 3.13 µg/mL in [1]. Also, the minimum inhibitory concentration (MIC) worked out at 3.13 µg/mL in the experiment with Pseudomonas cepacia; 0.39 µg/mL against Proteus mirabilis; 12.5 µg/mL against Pseudomonas maltophilia; 12.5 µg/mL with Bacteroides fragilis; 6.25 µg/mL against Pseudomonas aeruginosa.
Consider `CC1(C)S[C@@H]2[C@H](NC(=O)[C@H](NC(=O)c3cc(-c4cccs4)on3)c3ccccc3)C(=O)N2[C@H]1C(=O)O` [Example 8, D-α-[5-(2-thienyl)-isoxazole-3-carboxamido]-benzyl-penicillin sodium salt], for which the minimal inhibitory concentration (MIC) in the experiment with Staphylococcus aureus is at most 0.1 µg/mL; in the experiment on Serratia marcescens, 25 µg/mL; with Escherichia coli (read-out: MIC), 12.5 µg/mL; with Klebsiella pneumoniae, 12.5 µg/mL; in the experiment with Alcaligenes faecalis, 12.5 µg/mL; in experiment [1], 3.13 µg/mL. In addition, the MIC worked out at 6.25 µg/mL against Pseudomonas cepacia; 0.78 µg/mL against Proteus mirabilis; 12.5 µg/mL against Pseudomonas maltophilia; 12.5 µg/mL against Bacteroides fragilis; 6.25 µg/mL against Pseudomonas aeruginosa.
